Values quoted from earlier work as cited in patent US20090209641A1, “PHARMACEUTICAL COMPOSITION FOR ADMINISTRATION BY INJECTION” (priority 2006, published 2009).

solubility in water: 17 mg/mL
SMILES: N.N.O=C([O-])C1(C(=O)[O-])CCC1.[Pt+2] [carboplatinum]
